The results in this text go back to ChEMBL document CHEMBL4368865, “Synthesis, characterization and cytotoxic activity evaluation of ginsengdiol oxidation and nitrogen hybrid derivatives” (Medchemcomm, 2018).

In general, IC50 refers to the concentration that inhibits the measured activity by half.

Test system in one assay: not listed separately
The assay can be described thus: Cytotoxicity against human 8901 cells assessed as inhibition of cell proliferation after 48 hrs by MTT assay. The format is functional, cell-based.
Settings: not given
In general terms: Formazan colour is commonly taken as a measure of viable cells.
For the compound `CC(C)(O)CCC[C@@](C)(O)[C@H]1CC[C@]2(C)[C@@H]1[C@H](O)C[C@@H]1[C@@]3(C)CC[C@H](O)C(C)(C)[C@@H]3CC[C@]12C`, the IC50 was determined as 46.5 µM.

Consider `CC1(C)CCC[C@](C)([C@H]2CC[C@]3(C)[C@@H]2[C@H](O)C[C@@H]2[C@@]4(C)Cc5nccnc5C(C)(C)[C@@H]4CC[C@]23C)O1`, for which the IC50 was greater than 100 µM.

Turning to `CC1(C)CCC[C@](C)([C@H]2CC[C@]3(C)[C@@H]2[C@H](O)C[C@@H]2[C@@](C)(CC(=O)O)[C@H](C(C)(C)C=O)CC[C@]23C)O1`, the IC50 is greater than 100 µM.

`CC1(C)CCC[C@](C)([C@H]2CC[C@]3(C)[C@@H]2[C@H](O)C[C@@H]2[C@@]4(C)CC/C(=N\O)C(C)(C)[C@@H]4CC[C@]23C)O1`: the IC50 is greater than 100 µM.

With `COC(C)(C)CCC[C@@](C)(O)[C@H]1CC[C@]2(C)[C@@H]1C(=O)C[C@@H]1[C@@]3(C)CC[C@H](O)C(C)(C)[C@@H]3CC[C@]12C`, the IC50 was determined as 81.3 µM.

For the compound `CC(C)(O)CCC[C@@](C)(O)[C@H]1CC[C@]2(C)[C@@H]1C(=O)C[C@@H]1[C@@]3(C)CC[C@H](O)C(C)(C)[C@@H]3CC[C@]12C`, the IC50 turned out to be 66.5 µM.

A further assay deals with MCF7. Put plainly: cells. Particulars: Homo sapiens, MCF7, 48 h. The format is functional, cell-based.
Description: Cytotoxicity against human MCF7 cells assessed as inhibition of cell proliferation after 48 hrs by MTT assay
In turn, `CC1(C)CCC[C@](C)([C@H]2CC[C@]3(C)[C@@H]2[C@H](O)C[C@@H]2[C@@]4(C)Cc5nccnc5C(C)(C)[C@@H]4CC[C@]23C)O1` registered an IC50 greater than 100 µM.

`CC1(C)CCC[C@](C)([C@H]2CC[C@]3(C)[C@@H]2[C@H](O)C[C@@H]2[C@@](C)(CC(=O)O)[C@H](C(C)(C)C=O)CC[C@]23C)O1`: the IC50 is greater than 100 µM.

Regarding `CC1(C)CCC[C@](C)([C@H]2CC[C@]3(C)[C@@H]2[C@H](O)C[C@@H]2[C@@]4(C)CC/C(=N\O)C(C)(C)[C@@H]4CC[C@]23C)O1`, the IC50 is greater than 100 µM.

The compound `COC(C)(C)CCC[C@@](C)(O)[C@H]1CC[C@]2(C)[C@@H]1C(=O)C[C@@H]1[C@@]3(C)CC[C@H](O)C(C)(C)[C@@H]3CC[C@]12C` gave an IC50 of 44.9 µM.

With `CC(C)(O)CCC[C@@](C)(O)[C@H]1CC[C@]2(C)[C@@H]1C(=O)C[C@@H]1[C@@]3(C)CC[C@H](O)C(C)(C)[C@@H]3CC[C@]12C`, the IC50 is greater than 100 µM.

A further assay concerns A549. The assay can be described thus: Cytotoxicity against human A549 cells assessed as inhibition of cell proliferation after 48 hrs by MTT assay. The format is functional, cell-based. As to conditions: A549, 48 h.
Consider `CC(C)(O)CCC[C@@](C)(O)[C@H]1CC[C@]2(C)[C@@H]1[C@H](O)C[C@@H]1[C@@]3(C)CC[C@H](O)C(C)(C)[C@@H]3CC[C@]12C`, for which the IC50 worked out at 27.9 µM.

Turning to `CC1(C)CCC[C@](C)([C@H]2CC[C@]3(C)[C@@H]2[C@H](O)C[C@@H]2[C@@]4(C)Cc5nccnc5C(C)(C)[C@@H]4CC[C@]23C)O1`, the half-inhibitory concentration (IC50) was greater than 100 µM.

As for `CC1(C)CCC[C@](C)([C@H]2CC[C@]3(C)[C@@H]2[C@H](O)C[C@@H]2[C@@](C)(CC(=O)O)[C@H](C(C)(C)C=O)CC[C@]23C)O1`, the IC50 is greater than 100 µM.

Turning to `CC1(C)CCC[C@](C)([C@H]2CC[C@]3(C)[C@@H]2[C@H](O)C[C@@H]2[C@@]4(C)CC/C(=N\O)C(C)(C)[C@@H]4CC[C@]23C)O1`, the IC50 was greater than 100 µM.

Consider `COC(C)(C)CCC[C@@](C)(O)[C@H]1CC[C@]2(C)[C@@H]1C(=O)C[C@@H]1[C@@]3(C)CC[C@H](O)C(C)(C)[C@@H]3CC[C@]12C`, for which the IC50 worked out at 37.1 µM.

Take `CC(C)(O)CCC[C@@](C)(O)[C@H]1CC[C@]2(C)[C@@H]1C(=O)C[C@@H]1[C@@]3(C)CC[C@H](O)C(C)(C)[C@@H]3CC[C@]12C`: the IC50 amounted to 50.6 µM.

The test system of a further assay is HeLa. Put plainly: Cytotoxicity against human HeLa cells assessed as inhibition of cell proliferation after 48 hrs by MTT assay. The format is functional, cell-based.
Settings: not given
Regarding `CC(C)(O)CCC[C@@](C)(O)[C@H]1CC[C@]2(C)[C@@H]1[C@H](O)C[C@@H]1[C@@]3(C)CC[C@H](O)C(C)(C)[C@@H]3CC[C@]12C`, the IC50 worked out at 19.6 µM.

On to `CC1(C)CCC[C@](C)([C@H]2CC[C@]3(C)[C@@H]2[C@H](O)C[C@@H]2[C@@]4(C)Cc5nccnc5C(C)(C)[C@@H]4CC[C@]23C)O1`, for which the IC50 is greater than 100 µM.

Turning to `CC1(C)CCC[C@](C)([C@H]2CC[C@]3(C)[C@@H]2[C@H](O)C[C@@H]2[C@@](C)(CC(=O)O)[C@H](C(C)(C)C=O)CC[C@]23C)O1`, the IC50 was greater than 100 µM.

On to `CC1(C)CCC[C@](C)([C@H]2CC[C@]3(C)[C@@H]2[C@H](O)C[C@@H]2[C@@]4(C)CC/C(=N\O)C(C)(C)[C@@H]4CC[C@]23C)O1`, for which the IC50 was greater than 100 µM.

Consider `COC(C)(C)CCC[C@@](C)(O)[C@H]1CC[C@]2(C)[C@@H]1C(=O)C[C@@H]1[C@@]3(C)CC[C@H](O)C(C)(C)[C@@H]3CC[C@]12C`, for which the IC50 was found to be 18 µM.

Turning to `CC(C)(O)CCC[C@@](C)(O)[C@H]1CC[C@]2(C)[C@@H]1C(=O)C[C@@H]1[C@@]3(C)CC[C@H](O)C(C)(C)[C@@H]3CC[C@]12C`, the IC50 was greater than 100 µM.

For the next assay, the system named is U-87 MG. The assay can be described thus: Cytotoxicity against human U87 cells assessed as inhibition of cell proliferation after 48 hrs by MTT assay. The format is functional, cell-based, U-87MG ATCC.
Settings: not given
Turning to `CC(C)(O)CCC[C@@](C)(O)[C@H]1CC[C@]2(C)[C@@H]1[C@H](O)C[C@@H]1[C@@]3(C)CC[C@H](O)C(C)(C)[C@@H]3CC[C@]12C`, the IC50 came to 25.1 µM.

As to `CC1(C)CCC[C@](C)([C@H]2CC[C@]3(C)[C@@H]2[C@H](O)C[C@@H]2[C@@]4(C)Cc5nccnc5C(C)(C)[C@@H]4CC[C@]23C)O1`, the IC50 is greater than 100 µM.

With `CC1(C)CCC[C@](C)([C@H]2CC[C@]3(C)[C@@H]2[C@H](O)C[C@@H]2[C@@](C)(CC(=O)O)[C@H](C(C)(C)C=O)CC[C@]23C)O1`, the IC50 is greater than 100 µM.

For `CC1(C)CCC[C@](C)([C@H]2CC[C@]3(C)[C@@H]2[C@H](O)C[C@@H]2[C@@]4(C)CC/C(=N\O)C(C)(C)[C@@H]4CC[C@]23C)O1`, the IC50 is greater than 100 µM.

Turning to `COC(C)(C)CCC[C@@](C)(O)[C@H]1CC[C@]2(C)[C@@H]1C(=O)C[C@@H]1[C@@]3(C)CC[C@H](O)C(C)(C)[C@@H]3CC[C@]12C`, the IC50 is 32.7 µM.

Consider `CC(C)(O)CCC[C@@](C)(O)[C@H]1CC[C@]2(C)[C@@H]1C(=O)C[C@@H]1[C@@]3(C)CC[C@H](O)C(C)(C)[C@@H]3CC[C@]12C`, for which the IC50 is greater than 100 µM.

Test system in the next assay: not listed separately
Put plainly: Cytotoxicity against human IOSE-144 cells assessed as inhibition of cell proliferation after 48 hrs by MTT assay. Particulars: IOSE-144, 48 h. The format is cell-based.
Regarding `CC(C)(O)CCC[C@@](C)(O)[C@H]1CC[C@]2(C)[C@@H]1[C@H](O)C[C@@H]1[C@@]3(C)CC[C@H](O)C(C)(C)[C@@H]3CC[C@]12C`, the IC50 is greater than 100 µM.

As for `CC1(C)CCC[C@](C)([C@H]2CC[C@]3(C)[C@@H]2[C@H](O)C[C@@H]2[C@@]4(C)Cc5nccnc5C(C)(C)[C@@H]4CC[C@]23C)O1`, the IC50 was greater than 100 µM.

Consider `CC1(C)CCC[C@](C)([C@H]2CC[C@]3(C)[C@@H]2[C@H](O)C[C@@H]2[C@@](C)(CC(=O)O)[C@H](C(C)(C)C=O)CC[C@]23C)O1`, for which the IC50 is greater than 100 µM.

In the case of `CC1(C)CCC[C@](C)([C@H]2CC[C@]3(C)[C@@H]2[C@H](O)C[C@@H]2[C@@]4(C)CC/C(=N\O)C(C)(C)[C@@H]4CC[C@]23C)O1`, the IC50 is greater than 100 µM.

For `COC(C)(C)CCC[C@@](C)(O)[C@H]1CC[C@]2(C)[C@@H]1C(=O)C[C@@H]1[C@@]3(C)CC[C@H](O)C(C)(C)[C@@H]3CC[C@]12C`, the IC50 is greater than 100 µM.

For the compound `CC(C)(O)CCC[C@@](C)(O)[C@H]1CC[C@]2(C)[C@@H]1C(=O)C[C@@H]1[C@@]3(C)CC[C@H](O)C(C)(C)[C@@H]3CC[C@]12C`, the IC50 was greater than 100 µM.
